According to ChEMBL document CHEMBL3792311, “In vitro and in vivo activity of ML302F: a thioenolate inhibitor of VIM-subfamily metallo -lactamases” (Medchemcomm, 2016):
Activity calls are given as the source filed them. The calls are words filed in the database; no cut-off is given here.

Columns and labels:
Pseudomonas aeruginosa [1] = assay: Potentiation of meropenem-induced antibacterial activity against VIM2 carbapenemase producing multidrug-resistant Pseudomonas aeruginosa 8 clinical isolate assessed as MIC of meropenem at 1:8 meropenem:compound ratio by broth microtiter dilution method; assay type: functional
Escherichia coli [2] = assay: Antibacterial activity against VIM4 carbapenemase producing multidrug-resistant Escherichia coli 98 clinical isolate infected in Galleria mellonella larvae assessed as survival rate at 4.8 mg/kg measured at 96 hrs; assay type: functional, organism-based
Klebsiella oxytoca [3] = assay: Potentiation of meropenem-induced antibacterial activity against VIM4 carbapenemase producing multidrug-resistant Klebsiella oxytoca 126 clinical isolate at 1:8 meropenem:compound ratio by checkerboard method; assay type: functional
Pseudomonas aeruginosa [4] = assay: Antibacterial activity against VIM2 carbapenemase producing multidrug-resistant Pseudomonas aeruginosa 47 clinical isolate up to 512 mg/L by broth microtiter dilution method; assay type: functional, organism-based
Klebsiella pneumoniae [5] = assay: Antibacterial activity against VIM4 carbapenemase producing multidrug-resistant Klebsiella pneumoniae 120 clinical isolate up to 512 mg/L by broth microtiter dilution method; assay type: functional, organism-based
Klebsiella pneumoniae [6] = assay: Potentiation of meropenem-induced antibacterial activity against VIM4 carbapenemase producing multidrug-resistant Klebsiella pneumoniae 120 clinical isolate infected in Galleria mellonella larvae assessed as relative risk of survival at 4.8 mg/kg measured at 96 hrs relative to control; assay type: functional
Pseudomonas aeruginosa [7] = assay: Potentiation of meropenem-induced antibacterial activity against VIM2 carbapenemase producing multidrug-resistant Pseudomonas aeruginosa 12 clinical isolate assessed as MIC of meropenem at 1:8 meropenem:compound ratio by broth microtiter dilution method; assay type: functional
Enterobacter cloacae = assay: Antibacterial activity against VIM4 carbapenemase producing multidrug-resistant Enterobacter cloacae 102 clinical isolate up to 512 mg/L by broth microtiter dilution method; assay type: functional, organism-based
Klebsiella oxytoca [8] = assay: Potentiation of meropenem-induced antibacterial activity against VIM4 carbapenemase producing multidrug-resistant Klebsiella oxytoca 126 clinical isolate assessed as MIC of meropenem at 1:8 meropenem:compound ratio by broth microtiter dilution method; assay type: functional
Pseudomonas aeruginosa [9] = assay: Potentiation of meropenem-induced antibacterial activity against VIM2 carbapenemase producing multidrug-resistant Pseudomonas aeruginosa 50 clinical isolate assessed as MIC of meropenem at 1:8 meropenem:compound ratio by broth microtiter dilution method; assay type: functional
Klebsiella pneumoniae [10] = assay: Antibacterial activity against VIM4 carbapenemase producing multidrug-resistant Klebsiella pneumoniae 120 clinical isolate infected in Galleria mellonella larvae assessed as survival rate at 4.8 mg/kg measured at 96 hrs; assay type: functional, organism-based
Pseudomonas aeruginosa [11] = assay: Potentiation of meropenem-induced antibacterial activity against VIM2 carbapenemase producing multidrug-resistant Pseudomonas aeruginosa 12 clinical isolate at 1:8 meropenem:compound ratio by checkerboard method; assay type: functional
Klebsiella pneumoniae [12] = assay: Antibacterial activity against VIM1 carbapenemase producing multidrug-resistant Klebsiella pneumoniae GR54 clinical isolate up to 512 mg/L by broth microtiter dilution method; assay type: functional, organism-based
Pseudomonas aeruginosa [13] = assay: Potentiation of meropenem-induced antibacterial activity against VIM2 carbapenemase producing multidrug-resistant Pseudomonas aeruginosa 16 clinical isolate at 1:8 meropenem:compound ratio by checkerboard method; assay type: functional
Klebsiella oxytoca [14] = assay: Potentiation of meropenem-induced antibacterial activity against VIM4 carbapenemase producing multidrug-resistant Klebsiella oxytoca 95 clinical isolate assessed as MIC of meropenem at 1:8 meropenem:compound ratio by broth microtiter dilution method; assay type: functional
Klebsiella pneumoniae [15] = assay: Potentiation of meropenem-induced antibacterial activity against VIM4 carbapenemase producing multidrug-resistant Klebsiella pneumoniae 128 clinical isolate assessed as MIC of meropenem at 1:8 meropenem:compound ratio by broth microtiter dilution method; assay type: functional
Klebsiella pneumoniae [16] = assay: Potentiation of meropenem-induced antibacterial activity against VIM4 carbapenemase producing multidrug-resistant Klebsiella pneumoniae 120 clinical isolate infected in Galleria mellonella larvae assessed as survival rate at 4.8 mg/kg measured at 96 hrs; assay type: functional; settings: Klebsiella pneumoniae, 120, 96 h
Pseudomonas aeruginosa [17] = assay: Potentiation of meropenem-induced antibacterial activity against VIM2 carbapenemase producing multidrug-resistant Pseudomonas aeruginosa 11 clinical isolate assessed as MIC of meropenem at 1:8 meropenem:compound ratio by broth microtiter dilution method; assay type: functional
Pseudomonas aeruginosa [18] = assay: Potentiation of meropenem-induced antibacterial activity against VIM2 carbapenemase producing multidrug-resistant Pseudomonas aeruginosa GR57 clinical isolate at 1:8 meropenem:compound ratio by checkerboard method; assay type: functional
Pseudomonas aeruginosa [19] = assay: Antibacterial activity against VIM2 carbapenemase producing multidrug-resistant Pseudomonas aeruginosa 16 clinical isolate up to 512 mg/L by broth microtiter dilution method; assay type: functional, organism-based
Providencia stuartii = assay: Antibacterial activity against VIM1 carbapenemase producing multidrug-resistant Providencia stuartii 67 clinical isolate up to 512 mg/L by broth microtiter dilution method; assay type: functional, organism-based
Pseudomonas aeruginosa [20] = assay: Potentiation of meropenem-induced antibacterial activity against VIM2 carbapenemase producing multidrug-resistant Pseudomonas aeruginosa 6 clinical isolate assessed as MIC of meropenem at 1:8 meropenem:compound ratio by broth microtiter dilution method; assay type: functional
Klebsiella pneumoniae [21] = assay: Antibacterial activity against VIM4 carbapenemase producing multidrug-resistant Klebsiella pneumoniae 128 clinical isolate up to 512 mg/L by broth microtiter dilution method; assay type: functional, organism-based
Escherichia coli [22] = assay: Potentiation of meropenem-induced antibacterial activity against VIM4 carbapenemase producing multidrug-resistant Escherichia coli 98 clinical isolate infected in Galleria mellonella larvae assessed as relative risk of survival at 4.8 mg/kg measured at 96 hrs relative to control; assay type: functional
Pseudomonas aeruginosa [23] = assay: Potentiation of meropenem-induced antibacterial activity against VIM2 carbapenemase producing multidrug-resistant Pseudomonas aeruginosa 27 clinical isolate assessed as MIC of meropenem at 1:8 meropenem:compound ratio by broth microtiter dilution method; assay type: functional
Pseudomonas aeruginosa [24] = assay: Antibacterial activity against VIM2 carbapenemase producing multidrug-resistant Pseudomonas aeruginosa 9 clinical isolate up to 512 mg/L by broth microtiter dilution method; assay type: functional, organism-based
Klebsiella pneumoniae [25] = assay: Potentiation of meropenem-induced antibacterial activity against VIM4 carbapenemase producing multidrug-resistant Klebsiella pneumoniae 101 clinical isolate at 1:8 meropenem:compound ratio by checkerboard method; assay type: functional
Pseudomonas aeruginosa [26] = assay: Potentiation of meropenem-induced antibacterial activity against VIM2 carbapenemase producing multidrug-resistant Pseudomonas aeruginosa 16 clinical isolate assessed as MIC of meropenem at 1:8 meropenem:compound ratio by broth microtiter dilution method; assay type: functional

SMILES: O=C(O)/C(S)=C/c1c(Cl)ccc(Cl)c1Cl
- MIC (Pseudomonas aeruginosa [1]): 16 µg/mL
- Activity (Escherichia coli [2]): Active
- fractional inhibitory concentration index (FICI) (Klebsiella oxytoca [3]): 0.19
- Activity (Pseudomonas aeruginosa [4]): inactive
- Activity (Klebsiella pneumoniae [5]): inactive
- fold change (FC) (Klebsiella pneumoniae [6]): 0.7
- MIC (Pseudomonas aeruginosa [7]): 32 µg/mL
- Activity (Enterobacter cloacae): inactive
- MIC (Klebsiella oxytoca [8]): 4 µg/mL
- MIC (Pseudomonas aeruginosa [9]): 8 µg/mL
- Activity (Klebsiella pneumoniae [10]): Active
- fractional inhibitory concentration index (FICI) (Pseudomonas aeruginosa [11]): 0.75
- Activity (Klebsiella pneumoniae [12]): inactive
- fractional inhibitory concentration index (FICI) (Pseudomonas aeruginosa [13]): 0.5
- MIC (Klebsiella oxytoca [14]): 8 µg/mL
- MIC (Klebsiella pneumoniae [15]): 1 µg/mL
- survival at 4.8 mg/kg (Klebsiella pneumoniae [16]): 98%
- MIC (Pseudomonas aeruginosa [17]): 2 µg/mL
- fractional inhibitory concentration index (FICI) (Pseudomonas aeruginosa [18]): 0.19
- Activity (Pseudomonas aeruginosa [19]): inactive
- Activity (Providencia stuartii): inactive
- MIC (Pseudomonas aeruginosa [20]): 16 µg/mL
- Activity (Klebsiella pneumoniae [21]): inactive
- fold change (FC) (Escherichia coli [22]): 0.64
- MIC (Pseudomonas aeruginosa [23]): 16 µg/mL
- Activity (Pseudomonas aeruginosa [24]): inactive
- fractional inhibitory concentration index (FICI) (Klebsiella pneumoniae [25]): 0.09
- MIC (Pseudomonas aeruginosa [26]): 16 µg/mL
